Patent US20260297131A1, “COMPOSITIONS AND METHODS FOR PEPTIDE-BASED MODULATORS OF HUMAN PAPILLOMAVIRUS ONCOPROTEIN E6” (priority 2023, published 2026)
Like-named read-outs stand apart in the source and are kept apart here. Square brackets hold non-standard residues; d marks the D form. Peptide text beside a SMILES is read from it. * marks the point of attachment. Acetyl(9-fluorenyl) = O=C(CC1c2ccccc2-c2ccccc21)*; Anthracene1carbonyl = O=C(c1cccc2cc3ccccc3cc12)*; 2Nal = N[C@@H](Cc1ccc2ccccc2c1)C(=O)O; Gly(cPent) = N[C@H](C(=O)O)C1CCCC1; Aad = N[C@@H](CCCC(=O)O)C(=O)O; Cba = N[C@@H](CC1CCC1)C(=O)O; Aib = CC(C)(N)C(=O)O; Dha = C=C(N)C(=O)O

How the values were obtained:
MBP-16E6 [1] = biological target: T1, MBP-16E6 (Human papillomavirus 16, UniProt P03126, C104S/C118S/C147S/C87S)
MBP-16E6 C58S = MBP-16E6 C58S (Human papillomavirus 16, UniProt P03126, C104S/C118S/C147S/C58S/C87S); conditions: 12 h, PBS, 37° C.
MBP-16E6 [2] = biological target: T1, MBP-16E6; conditions: 1 μM MBP-16E6, Dha peptide mixture 12 μM, 2 h, 37° C.
MBP-16E6 [3] = biological target: T1, MBP-16E6; remark: listed apart in the source
MBP-16E6 L57A = MBP-16E6 L57A (Human papillomavirus 16, UniProt P03126, C104S/C118S/C147S/C87S/L57A); conditions: 10 μM reactide 18
MBP-16E6 [4] = biological target: T1, MBP-16E6; conditions: for crosslinking to MBP-16E6: LC-MS
16E6/E6AP = 16E6/E6AP (Human papillomavirus 16, UniProt P03126, C104S/C118S/C147S/C87S); conditions: 1 μM MBP-16E6
THRA = biological target: T2, THRA (Homo sapiens, UniProt P10827); assay type: binding
T2 sequence (P10827 148-410 limits assumed): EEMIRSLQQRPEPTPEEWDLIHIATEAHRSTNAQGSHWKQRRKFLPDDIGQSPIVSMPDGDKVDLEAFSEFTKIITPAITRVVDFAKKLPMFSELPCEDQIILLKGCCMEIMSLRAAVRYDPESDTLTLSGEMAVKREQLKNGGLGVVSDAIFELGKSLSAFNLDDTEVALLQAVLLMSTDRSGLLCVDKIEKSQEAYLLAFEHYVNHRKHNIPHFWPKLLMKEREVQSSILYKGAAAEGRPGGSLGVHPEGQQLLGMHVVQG

[5] = biological target: bovine serum albumin (BSA) (Bos taurus, UniProt P02769); test: Crosslinking in a protein mixture, BSA; assay type: binding; conditions: 10 μM peptide, 37° C., 12 h
Sumo-MDM2 = Sumo-MDM2 (Homo sapiens, UniProt Q00987); test: Crosslinking in a protein mixture, Sumo-MDM2; assay type: binding; conditions: 10 μM peptide, 37° C., 12 h
Sumo-MDM2, sequence (Q00987 25-109): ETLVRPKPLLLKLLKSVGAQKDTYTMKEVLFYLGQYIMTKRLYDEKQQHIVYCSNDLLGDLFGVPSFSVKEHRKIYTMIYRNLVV

bovine serum albumin (BSA), sequence (P02769 25-607): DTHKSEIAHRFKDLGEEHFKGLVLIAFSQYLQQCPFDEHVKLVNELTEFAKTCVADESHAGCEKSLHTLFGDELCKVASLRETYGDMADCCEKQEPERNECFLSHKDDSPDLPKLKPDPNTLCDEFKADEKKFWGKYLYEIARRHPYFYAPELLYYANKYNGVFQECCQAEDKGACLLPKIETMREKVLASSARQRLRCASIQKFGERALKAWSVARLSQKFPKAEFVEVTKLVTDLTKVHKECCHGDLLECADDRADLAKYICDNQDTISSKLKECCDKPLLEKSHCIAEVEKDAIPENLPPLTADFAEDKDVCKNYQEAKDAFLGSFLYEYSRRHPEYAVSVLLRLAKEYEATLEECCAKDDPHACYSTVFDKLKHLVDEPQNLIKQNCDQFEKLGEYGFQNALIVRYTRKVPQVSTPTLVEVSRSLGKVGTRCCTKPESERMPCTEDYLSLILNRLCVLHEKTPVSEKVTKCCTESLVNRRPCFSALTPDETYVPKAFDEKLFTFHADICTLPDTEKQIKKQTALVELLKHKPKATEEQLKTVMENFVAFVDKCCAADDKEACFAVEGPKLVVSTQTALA

C=C(NC(=O)[C@H](CC(C)C)NC(=O)[C@H](CC1CCC1)NC(=O)[C@H](CCC(=O)O)NC(=O)C(C)(C)NC(=O)[C@H](CC(C)C)NC(=O)[C@@H](NC(=O)[C@H](Cc1ccc2ccccc2c1)NC(=O)[C@@H](N)CCCC(=O)O)C1CCCC1)C(=O)N[C@@H](CCC(=O)O)C(=O)N[C@@H](CCC(=O)O)C(=O)N[C@@H](CCCNC(=N)N)C(N)=O [peptide 18] (H-[Aad][2Nal][Gly(cPent)]L[Aib]E[Cba]L[Dha]EER-NH2)
improved affinity compared to parent reactide ELT-DHA9G (MBP-16E6 [1]): 50 fold | crosslinking to C58S (MBP-16E6 C58S; 10 μM reactide 18): No crosslinking | mono-crosslink yield in competitive mixture (MBP-16E6 [2]): 83% | improvement over E3 (ELT-DHA9G) (MBP-16E6 [3]; kinetic study, kinact/Ki): 50 fold | kinact/Ki (MBP-16E6 [3]; role: inhibitor): 22700 M⁻¹ s⁻¹ | kinact (MBP-16E6 [3]; role: inhibitor, first-order rate constant, steady-state approximation): 0.018 s⁻¹ | crosslinking to L57A (MBP-16E6 L57A): no crosslinking | mono-crosslinking (MBP-16E6 [4]; 10 μM reactide, 1 μM MBP-16E6, PBS, 37° C., 2 h): > 95% | crosslinking to MBP-16E6 (MBP-16E6 [4]): Quantitative mono-crosslinked

C=C(NC(=O)[C@H](CC(C)C)NC(=O)[C@H](CC(C)C)NC(=O)[C@H](CCC(=O)O)NC(=O)[C@H](CCC(N)=O)NC(=O)[C@H](CC(C)C)NC(=O)[C@@H](NC(=O)[C@H](CC(C)C)NC(=O)[C@H](CCC(=O)O)NC(=O)[C@H](C)NC(=O)[C@H](CO)NC(=O)[C@H](CCC(N)=O)NC(=O)[C@@H]1CCCN1C(=O)[C@@H](NC(=O)CC1c2ccccc2-c2ccccc21)[C@@H](C)CC)[C@@H](C)O)C(=O)N[C@@H](CCCNC(=N)N)C(=O)N[C@@H](CCCNC(=N)N)C(=O)N[C@@H](CCCCN)C(=O)N[C@@H](CCCCN)C(=O)N[C@@H](CCCCNC(=O)c1cccc2cc3ccccc3cc12)C(N)=O [reactide 13] ({Acetyl(9-fluorenyl)}-IPQSAELTLQELL[Dha]RRKKK(Anthracene1carbonyl)-NH2)
BLI response signal to immobilized E6AP protein (16E6/E6AP): significantly decreased BLI response signal | crosslinking to C58S (MBP-16E6 C58S; 3 μM peptide): No crosslinking | crosslinking to C58S (MBP-16E6 C58S; 3 μM peptide, listed as peptide 13): no appreciable amount of reaction product | crosslink to THRA (THRA): no crosslink | modification of BSA [5]: no observable modifications | modification of MDM2 (Sumo-MDM2): no observable modifications | crosslinking to MBP-16E6 (MBP-16E6 [4]): Quantitative mono-crosslinked | mono-crosslinked conversion of 16E6 in protein mixture (MBP-16E6 [4]; protein mixture with BSA and Sumo-MDM2 (1 μM each), 10 μM peptide, 37° C., 12 h): > 95%
